# Assays:
# Type in all cases: cell-based, mouse
# activated CD4+ T-cells [1] = assay: CCL5-induced chemokinesis of activated CD4+ T-cells; details: 10 mM; CCL5 50 ng/ml
# Description: (§1) T-cell isolation, in-vitro activation and subset enrichment: T-cells were isolated from C57BL/6 murine lymph nodes and activated for 3 to 5 days with plate bound anti-CD3 and anti-CD28 antibodies (BioLegend), and IL-2 (PeproTech). CD4+ and CD8+ subsets were enriched with commercially available CD4+ and CD8+ T-cell isolation kits according to the manufacturer's instructions (Easysep, Invitrogen) either prior or post activation according to experimental settings. Chemokinesis assays: Chemokinesis assays were performed in 5 μm transwell inlays. In some experiments, T-cells were pre-treated overnight with a number of drugs purchased from Calbiochem: Rapamycin (200 nM), 2-DG (1 mM), Metformin (2 mM). […] 3×10^6 lymphocytes were seeded in the upper transwell chamber; chemokines were added to the lower chamber: CXCL10 (300 ng/ml), CCL5 (50 ng/ml), CCL19/21 (200 ng/ml of each chemokine). Migrated T-cells were counted with a hemocytometer 2, 4 and 6 hours after seeding and % of migrated cells was calculated.
# activated CD8+ T-cells [2] = assay: Glucose uptake and flux with 2-NBDG / 6-NBDG in CD8+ T-cells; details: 2-NBDG and 6-NBDG probes
# Procedure: Measurement of lactate, glycolysis, glucose uptake/flux and cell death: Lactate concentration was measured in the synovial fluid or peritoneal lavage using the Lactate assay Kit (Biovision), according to the manufacturer's instructions. Glycolytic metabolism was measured with a Seahorse XF24 Extracellular Flux Analyzer. Briefly, T-cells were grown in high glucose RPMI-1640 supplemented with 10% FCS. […] T-cell viability upon lactate or metabolic drug treatment was assessed by trypan blue exclusion assay.
# activated CD4+ T-cells [3] = assay: In vitro chemokinesis of activated CD4+ T-cells towards CXCL10 (transwell); details: 10 mM lactic acid or sodium lactate, CXCL10 300 ng/ml
# Description: as §1
# activated CD8+ T-cells [4] = assay: In vitro chemokinesis of activated CD8+ T-cells towards CXCL10 (transwell)
# Description: as §1
# CD8+ cytotoxic T-cells = assay: CTL cytotoxicity assay with allogeneic endothelial cells; details: 10 mM
# Procedure: CTL differentiation and activity assay: Isolated CD8+ T-cells (balb/c) were incubated with CD3-depleted and mytomycin-C-eradicated allogeneic splenocytes (C57BL/6). […] Dead cells were counted using trypan blue exclusion assay 2, 4, 6 and 18 hours after the start of the assay.
compound,measurement,setting,value
CC(O)C(=O)O (stereo not shown) [lactic-acid],CCL5-induced migration of CD4+ T-cells,activated CD4+ T-cells [1],not
same,glucose uptake and flux through glycolysis in CD8+ T-cells,activated CD8+ T-cells [2],vice versa
same,CXCL10-induced chemokinesis of activated CD4+ T-cells,activated CD4+ T-cells [3],not vice versa
same,CXCL10-induced chemokinesis of activated CD4+ T-cells,activated CD4+ T-cells [3]; listed as lactic acid,not affected
same,CXCL10-induced chemokinesis of activated CD8+ T-cells,"activated CD8+ T-cells [4]; 10 mM lactic acid or sodium lactate, CXCL10 300 ng/ml",inhibited
same,"chemokinesis of CD8+ T-cells, culture media buffered to neutral pH",activated CD8+ T-cells [4]; lactic-acid with bicarbonate or HEPES to reach a neutral pH,still impaired
same,cytolytic activity of CTLs,CD8+ cytotoxic T-cells,inhibited

# Source: patent publication US20190106697A1, “Inhibition Of Lactate Transporters For Use In The Treatment Of Inflammatory Diseases” (Queen Mary University of London, priority 2014, published 2019)
